The compounds below were run against T1, 1,25-dihydroxyvitamin D(3) 24-hydroxylase, mitochondrial (Homo sapiens, UniProt Q07973) (assay: Inhibition of N-terminally MBP-fused human CYP24A1 by cell-free assay).
T1 sequence (Q07973 whole entry): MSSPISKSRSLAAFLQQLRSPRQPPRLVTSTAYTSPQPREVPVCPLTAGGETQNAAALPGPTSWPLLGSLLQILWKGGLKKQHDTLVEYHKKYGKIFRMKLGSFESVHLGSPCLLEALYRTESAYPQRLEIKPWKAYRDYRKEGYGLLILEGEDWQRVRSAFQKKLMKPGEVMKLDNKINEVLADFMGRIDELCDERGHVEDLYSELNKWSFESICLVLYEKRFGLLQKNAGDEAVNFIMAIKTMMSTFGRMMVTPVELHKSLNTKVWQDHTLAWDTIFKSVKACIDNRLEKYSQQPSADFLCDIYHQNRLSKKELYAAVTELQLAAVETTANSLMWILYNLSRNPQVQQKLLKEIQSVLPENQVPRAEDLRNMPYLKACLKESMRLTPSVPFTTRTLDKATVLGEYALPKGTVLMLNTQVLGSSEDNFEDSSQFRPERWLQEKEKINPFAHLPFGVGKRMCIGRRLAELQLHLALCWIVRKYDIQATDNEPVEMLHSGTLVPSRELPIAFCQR
For COc1cc(/C=C/c2cccc3c2ccn3CCCCn2ccnc2)cc(OC)c1, the IC50 was 0.19 µM and the Ki was 14 nM.
For C(=C\c1cccc2c1ccn2CCCn1ccnc1)/c1ccccc1, the IC50 was 0.36 µM and the Ki was 26 nM.
Work on COc1cc(/C=C/c2cccc3c2ccn3CCCNS(=O)(=O)c2ccc(C)cc2)cc(OC)c1 yielded an IC50 of 10.4 µM and a Ki of 730 nM.
Work on Cc1ccc(S(=O)(=O)NCCCCn2ccc3c(/C=C/c4ccccc4)cccc32)cc1 yielded an IC50 of 3.3 µM and a Ki of 230 nM.
In the case of COc1cc(/C=C/c2cccc3c2ccn3CCCCNS(=O)(=O)c2ccc(C)cc2)cc(OC)c1, the IC50 is reported as 10.5 µM and the Ki is reported as 740 nM.
In the case of Cc1ccc(S(=O)(=O)NCCCn2ccc3c(/C=C/c4ccccc4)cccc32)cc1, the IC50 is reported as 4.8 µM and the Ki is reported as 340 nM.
Compound O=S(OCCCn1ccc2c(/C=C/c3ccccc3)cccc21)c1ccccc1 (stereo unspecified) has an IC50 of 7.6 µM and a Ki of 540 nM.
With C(=C\c1cccc2c1ccn2CCCCn1ccnc1)/c1ccccc1 the IC50 was 0.2 µM and the Ki was 14 nM.
C(=C\c1ccc2c(ccn2CCCn2ccnc2)c1)/c1ccccc1 showed an IC50 of 0.52 µM and a Ki of 37 nM.
C(=C\c1ccc2c(ccn2CCCCn2ccnc2)c1)/c1ccccc1 was tested, and the IC50 was 0.52 µM and the Ki was 37 nM.
Work on Cc1ccc(S(=O)(=O)OCCCn2ccc3c(/C=C/c4ccccc4)cccc32)cc1 yielded an IC50 of 9 µM and a Ki of 640 nM.
COc1cc(/C=C/c2cccc3c2ccn3CCCn2ccnc2)cc(OC)c1 was tested, and the IC50 was 0.44 µM and the Ki was 31 nM.
COc1cc(/C=C/c2cccc3c2ccn3CCCOS(=O)(=O)c2ccc(C)cc2)cc(OC)c1 gave an IC50 of 16.9 µM and a Ki of 1190 nM.
